# Patent US9468648B2, “Treatment including prebiotic composition for use with probiotics” (MASTER SUPPLEMENTS, INC., priority 2010, dated 2016)
# How the values were obtained:
# Format in all cases: cell-based
# [1] = test system: Lactobacillus rhamnosus-Lr-32 (LR-44); experiment: Growth (turbidity) and lactic acid producing activity in MRS broth, L. rhamnosus Lr-32; details: for pH: 0.1% in MRS (Polysorbate 80: 1.0 g/l)
# Protocol: (§1) Each flask was tempered to 37° C. and aseptically inoculated with 0.14 gm of the individual probiotic strains (in Examples 5 to 10 below) to be tested. At specified time intervals, a 30 ml sample from each flask was aseptically transferred into a HACH […] Turbidimeter sample cell. The turbidity of each sample was read and the results were reported in NTU's. The same 30 ml sample used for the turbidity reading was transferred into a 250 ml glass beaker, and the pH was recorded. The sample was titrated using 0.1 N NaOH to an endpoint of pH 6.8, and the quantity of NaOH used was recorded. The % Lactic Acid was calculated using the following formula: % Lactic Acid=((mls of 0.1N NaOH)×(0.1N)×(90 gm/mole)×(1 L/1000 ml))×100 mls of sample % Lactic Acid=(mls of 0.1N NaOH)×(0.9) (Results reported at 12 hours and 23 hours like: 12/23 in Table IV below)
# [2] = test system: THERALAC® Lot #32310A probiotic strains; experiment: Growth of the commercial probiotic […] in MRS broth; details: for pH: 0.1% in MRS (Polysorbate 80: 1.0 g/l)
# Protocol: MRS broth was prepared with (for controls) and without (for tests) polysorbate 80 and filled into 1 liter screw cap flasks at 500 ml each and autoclaved at 121° C. for 30 minutes. Various lecithin and/or oleic acid additives, or nothing (negative control), was added to the tests flasks prior to autoclaving. The flasks were then tempered to 37° C. in a water bath and inoculated at 0.1% with […]® Lot #32310A, a commercial probiotic product (Master Supplements, Inc., Victoria, Minn.). Capsules of […]® were opened and the contents mixed aseptically to serve as the inoculum source. At an inoculation rate of 0.1%, approximately 80 million CFU was added per ml of MRS media. […]® contains (formulation strength) the following probiotic strains at the approximate CFU values listed per gram: Turbidity, pH and titrations (made with 0.1 N NaOH and reported as % lactic acid) were made at various times up to 23 hours. The results are presented below in Table VI for the 12 and 23-hour analyses.
# [3] = test system: Lactobacillus paracasei Lpc-37 (F-19); experiment: Growth (turbidity) and lactic acid producing activity in MRS broth, L. paracasei Lpc-37
# Protocol: as §1, with “III” for “IV”
# [4] = test system: Lactobacillus acidophilus NCFM (LA-1); experiment: Growth (turbidity) and lactic acid producing activity in MRS broth, L. acidophilus NCFM; details: for pH: 0.1% in MRS (Polysorbate 80: 1.0 g/l)
# Protocol: as §1, with “At” for “Each flask was tempered to 37° C. and aseptically inoculated with 0.14 gm of the individual probiotic strains (in Examples 5 to 10 below) to be tested. At”, “I” for “IV”
# [5] = test system: Lactobacillus salivarius-Ls-33 (LS-30); experiment: Growth (turbidity) and lactic acid producing activity in MRS broth, L. salivarius Ls-33; details: for pH: 0.1% in MRS (Polysorbate 80: 1.0 g/l)
# Protocol: as §1, with “V” for “IV”
# [6] = test system: Bifidobacterium lactis Bl-04 (BL-34); experiment: Growth (turbidity) and lactic acid producing activity in MRS broth, B. lactis Bl-04; details: 0.1% in MRS (Polysorbate 80: 1.0 g/l)
# Protocol: as §1, with “II” for “IV”
# [7] = 0.1% in MRS (Polysorbate 80: 1.0 g/l), 12 hours
Compound,effectiveness as polysorbate 80 replacement (growth and activity) ([1]; 0.1% inclusion rate),effectiveness as polysorbate 80 replacement (growth and activity) ([2]; 0.1% inclusion rate),effectiveness as polysorbate 80 replacement (growth and activity) ([3]; 0.1% inclusion rate),effectiveness as polysorbate 80 replacement (growth and activity) ([4]; 0.1% inclusion rate),effectiveness as polysorbate 80 replacement (growth and activity) ([5]; 0.1% inclusion rate),pH ([1]; 12 hours),pH ([1]; 23 hours),pH ([2]; 12 hours),pH ([2]; 23 hours),Lactic Acid % ([6]; 12 hours) [%],pH ([6]; 12 hours),Lactic Acid % ([6]; 23 hours) [%],pH ([6]; 23 hours),"Lactic Acid % [3, 7] [%]","pH [3, 7]","pH ([3]; 0.1% in MRS (Polysorbate 80: 1.0 g/l), 23 hours)",pH ([4]; 12 hours),pH ([4]; 23 hours),pH ([5]; 12 hours),pH ([5]; 23 hours)
"CCCCCCCC/C=C\CCCCCCCC(=O)O [Oleic Acid, oleic acid]",not as good a replacement for polysorbate 80 as sunflower lecithin,acceptable replacement value for polysorbate 80,not as effective a replacement for polysorbate 80 as sunflower lecithin,somewhat effective as a polysorbate 80 replacement,not as good a replacement,,,,,,,,,,,,,,,
polysorbate 80,,,,,,4.0,3.7,3.9,3.7,0.57,4.8,0.84,4.5,0.99,4.2,3.9,4.2,4.1,3.8,3.7
